Data reported in patent US9266813B2, “Stilbenoid compound as inhibitor for squamous carcinoma and hepatoma and uses thereof” (AnnCare Bio-Tech Center Inc., priority 2013, dated 2016).
In brackets after ≈: the same amount, converted by molar mass. Like-named read-outs stand apart in the source and are kept apart here.

Tests used:
[1] = Biochemical analysis of blood of CAR xenograft mice after 30 days of treatment; assay type: in vivo, BALB/c nude mice
Protocol: All mice were monitored the relative toxicity of each group after the animals were sacrificed, and whole blood samples were drawn from the heart for biochemical measurements to evaluate the safety of compound 2-4. Briefly, blood was collected from each mouse and allowed to clot and centrifuged at 1000×g for 10 minutes at room temperature for further biochemical tests including total protein, albumin, creatinine, blood urea nitrogen (BUN), uric acid and glucose.
Furthermore, after 30 days of treatment, these mice were sacrificed and their blood samples were collected for biochemical quantification of total protein, albumin, creatinine, blood urea nitrogen, uric acid and glucose.

[2] = system: human normal oral keratinocyte cells (OK); assay: MTT viability of normal oral keratinocytes (OK); assay type: cell-based; settings: 0, 25, 50 and 100 μM, 72 hours, FIG. 7 (B)
Protocol: (§1) Human normal gingival fibroblasts cells (HGF) and human normal oral keratinocyte cells (OK) were acquired from Department of Dental Hygiene, China Medical University, Taiwan. HGF and OK were cultivated in DMEM.
(§2) Both HGF and OK cells (1×10^4 cells) were placed into a 96-well plate and were incubated with 0, 25, 50 and 100 μM of compound 2-4 for 24, 48 and 72 hours. For incubation with the autophagy inhibitor, cells were pretreated with […] (3-MA, 10 mM) for 1 hour, followed by treatment with or without compound 2-4 (50 and 75 μM) for 48 hours. After washing the cells, DMEM containing MTT (0.5 mg/mL) was added to detect viability. The cell viability was expressed as % of the control.
(§3) In FIG. 7, (A) indicates HGF cells and (B) indicates OK cells after exposure to various concentrations of compound 2-4 for 72 hours. The cell viability is determined by MTT assay and the data shown represent the mean±S.E.M (n=3).

CAR xenograft = assay: Xenograft antitumor study in CAR xenograft nude mice; assay type: in vivo, BALB/c nude mice
Excerpt: All animal experiments of the invention complied with institutional guidelines (Affidavit of Approval of Animal Use Protocol) approved by the Institutional Animal Care and Use Committee (IACUC) of China Medical University (Taichung, Taiwan). All pathogen-free four-week-old male BALB/c nude mice were purchased from the National Laboratory Animal Center (Taipei, Taiwan). These animals were housed at a constant room temperature with a regular 12-hour light/12-hour dark cycle and hereafter fed a standard rodent diet and water ad libitum.
The CAR cells (1×10^7 cells/mouse) in 0.2 mL (1:1) cultural medium and Matrigel (BD Biosciences) were subcutaneously injected into the flank of nude mice. When xenograft tumors reached approximately 50 mm^3 (at day 22 after cell inoculation), thirty two mice were randomly divided into four groups with eight mice in each group. The experimental group were given oral treatments included compound 2-4 at the dosages of 25, 50 and 100 mg/kg body weight, respectively, using an everyday 30 times (dosing regimen: QD×30, p.o.); whereas control group were given orally with 30 μL of DMSO throughout the experimental period. The tumor size (mm^3) from each mouse was determined utilizing a caliper by calculating as 0.5×length×(width)^2. At the end of treatment, all animals were anaesthetized by carbon dioxide (CO2) and sacrificed on 31st day. The tumor tissues from each mouse were removed then measured and weighed individually as previously reported.
Compound 2-4 was evaluated in the CAR xenograft nude mice by oral route (p.o.) at dose of 25, 50, and 100 mg/kg/day in a schedule of QD×30. […] At the 100 mg/kg/day dose of compound 2-4, the weight of CAR tumor was reduced down to 22% that of the vehicle control (FIG. 5).

Hep3B cells = assay: MTT assay, antiproliferation on Hep3B cells; assay type: cell-based; settings: for IC50: Homo sapiens, Hep3B cells, MTT
Protocol: (§4) Antiproliferations of compound 2-4 were determined by an improved MTT assay. The CAR cells were individually plated at a density of 2×10^4 cells/well onto 96-well plates and treated with Dimethyl sulfoxide (DMSO) alone (0.5% (v/v) in media served as a vehicle control) and various concentrations (0, 25, 50, 75 and 100 μM) of compound 2-4 for 24 and 48 hours. Following the above treatments, the supernatant was discarded before a 100 μL solution of MTT (500 μg/ml) was added to each well for 4 hours at 37 °C. After incubation, the medium was replaced by the addition of 200 μL DMSO to solubilize the violet formazan crystal produced from MTT. The absorbance of the dissolved formazan grained within the cells was measured at 570 nm by a microplate reader to calculate viability (data shown as % of control).
(§5) Please refer to Table 1. Hep3B cells and CAR cells were treated by different concentrations of the compounds of the invention for 48 and 72 hours, and the antiprolifieration effect of such compounds was evaluated using MTT assay. Data are presented as IC50 (μM), the concentration of 50% proliferation-inhibitory effect.
The anti-proliferative ability of compound 2-4 in hepatocellular carcinoma was evaluated in Hep3B cells using MTT assay. Hep3B cells were treated with various concentrations of compound 2-4 for 48 and 72 hours.

[3] = system: Human normal gingival fibroblasts cells (HGF); assay: MTT viability of normal gingival fibroblasts (HGF); assay type: cell-based; settings: 0, 25, 50 and 100 μM, 72 hours, FIG. 7 (A)
Protocol: as §1, §2, §3

Water solubility assay = assay type: physicochemical; settings: read-out: Water solubility, Content
Excerpt: The water solubility of the compounds of the present invention can be determined by methods known in the art and the result is shown in Table 3.

CAR cells = assay: MTT assay, antiproliferation on cisplatin-resistant head and neck squamous carcinoma (CAR) cells; assay type: cell-based, human; settings: for IC50: Homo sapiens, CAR cells, MTT
Protocol: The human head and neck carcinoma cell line CAL27 was obtained from American Tissue Culture Collection (ATCC). The cisplatin-resistant cell line CAR (CAL27-cisplatin resistance) was established by clonal selection of CAL27 using 10 cycles of 1 passage treatment with 10-80 μM of cisplatin (Sigma-Aldrich Corp. (St. Louis, Mo., USA) followed by a recovery period of another passage. CAR cells were cultivated in Dulbecco's modified Eagle's medium (DMEM) supplemented with 10% FBS, 100 μg/mL streptomycin, 100 U/mL penicillin G, 2 mM L-glutamine (Gibco by Life Technologies (Carlsbad, Calif., USA)) and 80 μM of cisplatin (Sigma-Aldrich Corp. (St. Louis, Mo., USA).
as §4, §5
MTT assay was utilized and CAR cells were treated with compound 2-4 in different concentration for 24, 48 and 72 hours. […] The IC50 after 72 hours of treatment was 50 μM.

[4] = 25 mg/kg p.o. QD×30, mean ± S.E.M.
[5] = 50 mg/kg p.o. QD×30, mean ± S.E.M.
[6] = 100 mg/kg p.o. QD×30, mean ± S.E.M.

`COc1cc(/C=C/c2ccc(OC(=O)C(C)(CO)CO)cc2)cc(OC)c1` [Compound 2-4, 4-(3,5-dimethoxystyryl)phenyl-3-hydroxy-2-(hydroxymethyl)-2-methylpropanoate] showed an Albumin [1, 4] of 3.666 ± 0.052 g/dL, a Blood urea nitrogen [1, 4] of 28.200 ± 5.784 mg/dL and a Creatinine [1, 4] of 1.133 ± 0.109 mg/dL. The Glucose [1, 4] was 181.333 ± 32.067 mg/dL, the “Total Protein” value [1, 4] was 5.383 ± 0.117 g/dL and the Uric acid [1, 4] was 4.567 ± 0.784 mg/dL. It also gave an Albumin [1, 5] of 3.417 ± 0.075 g/dL, a Blood urea nitrogen [1, 5] of 30.950 ± 1.265 mg/dL and a Creatinine [1, 5] of 0.910 ± 0.077 mg/dL. For the same molecule, the Glucose [1, 5] was 172.500 ± 6.504 mg/dL, the “Total Protein” value [1, 5] was 5.583 ± 0.376 g/dL and the Uric acid [1, 5] was 5.450 ± 0.878 mg/dL. It also gave an Albumin [1, 6] of 3.400 ± 0.089 g/dL, a Blood urea nitrogen [1, 6] of 29.250 ± 3.855 mg/dL and a Creatinine [1, 6] of 0.830 ± 0.128 mg/dL. The Glucose [1, 6] was 196.500 ± 8.643 mg/dL, the “Total Protein” value [1, 6] was 5.283 ± 0.194 g/dL and the Uric acid [1, 6] was 5.050 ± 1.882 mg/dL. For the same molecule, the “toxicity when orally administered” value ([1]; CAR xenograft mice, oral, 30 days) was “very low toxicity”, the “blood analysis result versus vehicle control mice” value ([1]; after 30 days of oral treatment, Table 2) was “no significant difference in blood analysis result” and the “cell viability of OK cells” value [2] was “no viability impact is observed”. For the same molecule, the tumor growth suppression (CAR xenograft; p.o. 25 mg/kg/day, QD×30) was “Significant tumor growth suppression”, the “weight of CAR tumor relative to vehicle control” value (CAR xenograft; p.o. 100 mg/kg/day, QD×30, FIG. 5) was 22% and the “effect on CAR tumor weight” value (CAR xenograft; p.o. 25, 50, 100 mg/kg/day, QD×30, FIG. 5) was “dose-dependent inhibitory effect”. For the same molecule, the body weight change (CAR xenograft; p.o. 25, 50, 100 mg/kg/day, QD×30, FIG. 6) was “no significant body weight change”, the “effect on CAR tumor size” value (CAR xenograft; p.o. 25, 50, 100 mg/kg/day, QD×30, FIGS. 3 and 4) was “dose-dependent inhibitory effect” and the “inhibition on cell viability in Hep3B cells” value (Hep3B cells; 48 and 72 hours, FIG. 2) was “concentration-dependent inhibition on cell viability”. The “anticancer activity compared with resveratrol and pterostilbene” value (Hep3B cells; Hep 3B and CAR cells, Table 1) was “more potent anticancer activity than resveratrol and pterostilbene”, the IC50 (Hep3B cells; 48 hours, Example 19 text, read-out: IC50 after 48 hours of treatment (FIG. 2)) was 50 µM and the IC50 (Hep3B cells; 48 hours, read-out: Hep 3B (IC50 (μM)) 48 hours) was 63.5 µM. For the same molecule, the IC50 (Hep3B cells; 72 hours, read-out: Hep 3B (IC50 (μM)) 72 hours) was 43.8 µM, the “cell viability of HGF cells” value [3] was “no viability impact is observed” and the solubility (Water solubility assay) was 18 µg/mL (≈ 48.3 µM). The “antiproliferative effect on CAR cells” value (CAR cells; 24, 48 and 72 hours, FIG. 1) was “concentration- and time-dependent antiproliferative effect”, the IC50 (CAR cells; 48 hours, read-out: CAR (IC50 (μM)) 48 hours) was 73 µM and the IC50 (CAR cells; 72 hours, Example 18 text, read-out: IC50 after 72 hours of treatment (FIG. 1)) was 50 µM. It also gave an IC50 (CAR cells; 72 hours, read-out: CAR (IC50 (μM)) 72 hours) of 45.2 µM.
